According to US20100022637A1, “IDENTIFICATION OF ANTI-CANCER COMPOUNDS AND COMPOUNDS FOR TREATING HUNTINGTON'S DISEASE AND METHODS OF TREATMENT THEREOF” (THE TRUSTEES OF COLUMBIA UNIVERSITY IN THE CITY OF NEW YORK, priority 2005, published 2010):
Values after ≈ are worked out from the molar mass of the structure shown.

Experiments:
RKO-E6 cells = assay: Alamar Blue viability assay, RKO-E6; type: cell-based, human; conditions: in words; for effect on doxorubicin's lethality in RKO-E6 cells: co-treatment with 0.5 μg/ml doxorubicin, 24 h
Method: RKO colon carcinoma, human (ATCC, order # CRL-2577), RKO-E6 colon carcinoma transfected with HPV E6 inserted in pCMV.3 (ATCC, order # CRL-2578) were grown in MEM with 2 mM L-glutamine and Earle's BBS adjusted to contain 1.5 g/L NaHCO3, 0.1 mM non-essential amino acids and 1.0 mM sodium pyruvate, and supplemented with 10% fetal bovine serum, penicillin and streptomycin (pen/strep). Both cell lines were incubated at 37° C. in a humidified incubator containing 5% CO2.
The Alamar Blue assay incorporates a fluorimetric/colorimetric growth indicator that changes color in the response to chemical reduction by viable cells (Nociari 1998). Cells were seeded at a density of 3,000 cells (57 μl) per well in a 384-well black, clear-bottom plates using a syringe bulk dispenser (Zymark Sciclone ALH). Three microliters were removed from a compound daughter plate using a 384 fixed cannula head and added to the assay plate, making the final concentration 4 μg/ml. The plates were incubated for 24 h at 37° C. 10 μl of 40% Alamar Blue (Biosource Int., cat #DAL1100) solution in media was added to each well (1:10 dilution). The assay plates were incubated for 16h. Fluorescence intensity was determined using a Packard Fusion platereader with a 535 nm excitation filter and a 590 nm emission filter. The average fluorescence for the whole plate was used as a positive control. Average percentage inhibition for each well was determined using our freely available SLIMS software (Kelley et al., 2004).
The daughter plates for the 2-fold dilution series were prepared with a Zymark Sciclone ALH by diluting the replica daughter plates to obtain compound concentrations from 8 μg/ml-0.008 μg/ml (columns 8-18). Columns 1-7 were used as untreated control. RKO-E6 cells were seeded at the density of 3,000 per well in 55 μl, and 5 μl were added from the daughter plate. RKO cells were seeded at the density of 2,000 per well in 55 μl, and 5 μl were added from the daughter plate. The assay was incubated for 24 h at 37° C. 10% Alamar Blue was added to each well and the assay was incubated for 16 h (see above). Compounds for retesting were purchased from the manufacturers or from Sigma-Aldrich (see above). Stocks were prepared in DMSO at 4 mg/ml.
Each cell line (RKO, RKO-E6, HeLa and TC32) was treated with a dose combination matrix of doxorubicin and a selected hit compound. Each treatment was done in a triplicate in 384-well format. The average percent inhibition of cell proliferation, measured with Alamar Blue, was determined using the following formula: […]

[1] = Rescue and toxicity of Compound 164 and analogs (Table 4); conditions: for Max % Toxicity / Max % Rescue: Table 4, cell model not stated; for TC50: Table 4, toxicity
N548 mutant cells = assay: cells; conditions: Rattus norvegicus; for maximal fold induction: 72 h, read-out: N548 Mut: Max, maximum rescue expressed as fold over DMSO treated N548 mutant cells; for EC50: read-out: EC50 based on activity in N548 mutant cells
Method: Embryonic rat striatal neurons were conditionally immortalized by stably transfecting a temperature-sensitive SV40 large T-antigen (T-ag) to generate the ST14A cell line. ST14A cells proliferate at the permissive temperature (33° C.), but stop dividing at 39° C., as a result of T-ag degradation. […] As htt protein context modulates polyQ toxicity, testing these different length htt proteins could provide insight into the basis for context dependence.
ST14A Assay System: Calcein acetoxylmethyl ester (AM) (Molecular Probes, Eugene, Oreg.) is a non-fluorescent, membrane-permeable compound that is cleaved by intracellular esterases, which subsequently forms the anionic, fluorescent compound, calcein, that cannot permeate the cell membrane. […] A fluorescence viability assay, that is based on conversion of a non-fluorescent substrate (calcein AM) to a fluorescent product by nonspecific esterases in live cells, was employed to monitor cell death in wild type (wt) ST14A-Htt and mut ST14A-Htt cell lines. Cell death is indicated by a decrease in fluorescence. […] 3 μl of each compound was transferred from daughter plates to triplicate assay plates for a final assay concentration of 4 μg/ml in 0.1% DMSO (10 μM for NINDS compounds). Cells were incubated at 33° C. for 3 h to enhance attachment and then shifted to 39° C. (with 5% CO2). After 3 days (d), cells were washed 10 times with phosphate buffered saline (PBS) leaving 20 μl residual PBS per well, and 20 μl of 2 μg/ml calcein AM (Molecular probes) in PBS was added per well. […] The fluorescence intensity in each well was normalized to the median of each plate. The median normalized fluorescence of each triplicate assay wells was determined. A well with more than 50% increase in intensity above the median signal intensity was considered a “hit.”
Assay Development: An assay was developed for detecting mutant htt-induced cell death in ST14A cells in a 384-well plate format. A calcein AM-based method was used to detect cell viability, and optimized the cell number and time course for this method. […] A cell number titration was performed to determine the cell density at which calcein fluorescence was not saturated and the coefficient of variation (CV) was low (FIG. 14A-B). A low CV is critical for a high-throughput assay as it decreases noise and enhances sensitivity. […] Next, the kinetics of the fluorescence signal were determined.
Next, the serum concentrations that induce cell death in these cells were determined. Cells were seeded in decreasing serum (IFS) concentrations (5 to 0%), and cell viability was assayed after 3 d using the calcein AM assay (FIG. 14E).
A Z′ value of greater than 0 is required for a usable assay, with a maximum value of 1.0 for an ideal assay. For the assay, calcein fluorescence was used on the day of seeding to represent 100% rescue. The difference in calcein fluorescence signal on the day of seeding and after different number of days under serum deprivation was determined and used to calculate the Z′ factor. […] About 47,000 compounds were assayed in a 384-well plate format in triplicate to enhance the reliability of the primary screen.

[2] = tested on: PC12 expressing Q103 exon 1 htt; assay: PC12 HD model, Alamar Blue viability; type: cell-based; conditions: for EC50: Rattus norvegicus, PC-12, unit inferred; for PC12 rescue: percent increase in viability in compound treated cells above DMSO treated: — = no activity in the assay (footnote n.a.)
Method: For enhanced stability the repeat portion consists of alternating CAG/CAA repeats. […] Mutant (mut) htt was induced by the ecdysone receptor agonist, tebufenozide.
For the PC12 assay, 7500 cells/well were plated in 384-well plates in 57 μl of PC12 medium with tebufenozide (1 μM). Compounds (3 μl) from daughter plates were added to the cells and incubated at 37° C. After 48 h, 20 μl of 40% Alamar Blue (Biosource, CA) in PC12 media was added per well and cells incubated for 12 h at 37° C. […] Fluorescence intensity was determined using a Packard Fusion plate reader with an excitation filter centered on 535 nm and an emission filter centered on 590 nm. Average percentage inhibition at each concentration was calculated.

With `CCCCCCCCCCCCCCCC[N+](C)(C)C.[Br-]` [cetrimonium bromide, cetyltrimethylammonium bromide] the “effect on doxorubicin's lethality in RKO-E6 cells” value (from here on “effect on doxorubicin's lethality”) (RKO-E6 cells) was “selectively increased doxorubicin's lethality” and the “effect on camptothecin's lethality” value (RKO-E6 cells; co-treatment with camptothecin) was “did not synergize with camptothecin”.
With `CC[C@H]1CN2CCc3cc(OC)c(OC)cc3[C@@H]2C[C@@H]1C[C@H]1NCCc2cc(OC)c(OC)cc21` [emetine] the “effect on doxorubicin's lethality” value (RKO-E6 cells) was “potentiated doxorubicin's lethality”.
With `CC1(C)CC(CCN(Cc2ccccc2)C(=O)c2ccco2)(c2ccccc2)CCO1` (stereo not drawn) [Compound 164-16, 2-Furancarboxamide, N-(phenylmethyl)-N-[2-(tetrahydro-2,2-dimethyl-4-phenyl-2H-pyran-4-yl)ethyl]-(9CI)] the CC50 [1] was 8 µM, the EC50 [1] was 0.2 µM and the “Max % Toxicity” value [1] was 53.14%.
For `COc1ccc(CN(CCC(c2ccc(OC)cc2)C2CCOC(C)(C)C2)C(=O)c2ccco2)cc1` (stereo not drawn) [Compound 164-14, N-[3-(2,2-dimethyltetrahydro-2H-pyran-4-yl)-3-(4-methoxyphenyl)propyl]-N-(4-methoxybenzyl)-2-furamide], the EC50 [1] was 0.2 µM, the TC50 [1] was 2 µM and the “Max % Toxicity” value [1] was 53.80%.
For `Cc1ccc(C2(CCNC(=O)c3ccc(Br)o3)CCOC(C(C)C)C2)cc1` (stereo not drawn) [Compound 164-2], the EC50 [1] was 0.44 µM and the “Max % Toxicity” value [1] was 53.69%.
For `CCC(=O)N(CCC1(c2ccc(F)cc2)CCOC(C)(C)C1)Cc1ccc(OC)c(OC)c1` (stereo not drawn) [Compound 164-15, Propanamide, N-[(3,4-dimethoxyphenyl)methyl]-N-[2-[4-(4-fluorophenyl)tetraydro-2,2-dimethyl-2H-pyran-4-yl}ethyl]-(9CI)], the “Max % Rescue” value [1] was 48.92%.
Work on `CCCCc1ccc(C(=O)N(CCC(=O)N2CCC(Cc3ccccc3)CC2)Cc2ccco2)cc1` [revertin-11] yielded a maximal fold induction (N548 mutant cells) of 2.5, an EC50 (N548 mutant cells) of 2 µg/mL (≈ 4.11 µM) and an EC50 [2] of 30 µg/mL (≈ 61.6 µM). For the same compound, the “PC12 rescue: percent increase in viability in compound treated cells above DMSO treated” value (“PC12 rescue: percent increase” below) [2] was 27%.
`CCCCCCCCC(=O)N(Cc1ccco1)C(C)c1nc2ccccc2c(=O)n1-c1cc(C)ccc1C` (stereo not drawn) [revertin-9] gave a maximal fold induction (N548 mutant cells) of 2, an EC50 (N548 mutant cells) of 1 µg/mL (≈ 1.95 µM) and an EC50 [2] of 25 µg/mL (≈ 48.7 µM). The “PC12 rescue: percent increase” value [2] was 25%.
For `COc1ccc(CN(CCC2(c3ccccc3)CCOC(C)(C)C2)C(C)=O)cc1OC` (stereo not drawn) [Compound 164-9], the “Max % Rescue” value [1] was 28.56% and the “Max % Toxicity” value [1] was 19.60%.
In the case of `CC(c1ccccc1)N(CCC(c1ccccc1)C1CCOC(C)(C)C1)C(=O)c1ccco1` (stereo not drawn) [Compound 164-13, N-[3-(2,2-dimethyltetrahydro-2H-pyran-4-yl)-3-phenylpropyl]-N-(1-phenylethyl)-2-furamide], the TC50 [1] is reported as 4 µM and the “Max % Toxicity” value [1] is reported as 55.74%.
In the case of `CCCCCC(O)C=CC1CCC(=O)C1CCCCCCC(=O)O` (stereo not drawn) [11-deoxyprostaglandin E1], the “effect on doxorubicin's lethality” value (RKO-E6 cells) is reported as “showed no activity”.
With `COc1ccc(CN(CCC2(c3ccc(C)cc3)CCOC(C)(C)C2)C(=O)c2ccco2)cc1` (stereo not drawn) [Compound 164-6] the EC50 [1] was 0.1 µM, the TC50 [1] was 3 µM and the “Max % Toxicity” value [1] was 60.14%.
In the case of “Propanamide, N-[(3,4-dimethoxyphenyl)methyl]-N-[2-(tetrahydro-2,2-dimethyl-4-phenyl-2H-pyran-4-yl)ethyl]-(9CI) [Compound 164-8]”, the “Max % Rescue” value [1] is reported as 51.48%.
In the case of `COc1ccc(CN(CCC(c2ccccc2)C2CCOC(C)(C)C2)C(=O)c2ccco2)cc1OC` (stereo not drawn) [Compound 164-5, N-(3,4-dimethoxybenzyl)-N-[3-(2,2-dimethyltetrahydro-2H-pyran-4-yl)-3-phenylpropyl]-2-furamide], the EC50 [1] is reported as 0.2 µM, the TC50 [1] is reported as 6 µM and the “Max % Toxicity” value [1] is reported as 18.43%.
`CCCc1ccc(CC2=C(O)C(=O)c3ccccc3C2=O)cc1` [revertin-8] showed a maximal fold induction (N548 mutant cells) of 3, an EC50 (N548 mutant cells) of 2 µg/mL (≈ 6.53 µM) and an EC50 [2] of 2 µg/mL (≈ 6.53 µM). The “PC12 rescue: percent increase” value [2] was 15%.
In the case of `O=C(c1ccco1)N1CCN(Cc2ccc3c(c2)OCO3)CC1` [Compound 164-17, 1-(1,3-benzodioxol-5-ylmethyl)-4-(2-furoyl)piperazine], the “Max % Toxicity” value [1] is reported as 31.31%.
In the case of `COc1ccc(CN2CCN(C(=O)c3ccco3)CC2)cc1OC` [Compound 164-19, 1-(3,4-dimethoxybenzyl)-4-(2-furoyl)piperazine], the EC50 [1] is reported as 18.9 µM and the “Max % Toxicity” value [1] is reported as 27.77%.
With `NC(=O)NO` [hydroxyurea] the “effect on doxorubicin's lethality” value (RKO-E6 cells) was “only modest upregulation of doxorubicin's lethality”.
For `COc1ccc(CN(CCC2(c3ccccc3)CCOC(C)(C)C2)C(=O)c2ccco2)cc1OC` (stereo not drawn) [Compound 164], the EC50 [1] was 10 µM and the “Max % Toxicity” value [1] was 1.27%.
For `CC(=O)N(CCC1(c2ccc(C)cc2)CCOC(C(C)C)C1)Cc1ccco1` (stereo not drawn) [Compound 164-12, N-(2-furylmethyl)-N-{2-[2-isopropyl-4-(4-methylphenyl)tetrahydro-2H-pyran-4-yl]ethyl}acetamide], the TC50 [1] was 8 µM and the “Max % Toxicity” value [1] was 60.37%.
In the case of `O[C@H]1[C@H]2c3cc4c(cc3CN3CC[C@H](C[C@@H]1O)[C@H]23)OCO4` [dihydrolycorine], the “effect on doxorubicin's lethality” value (RKO-E6 cells) is reported as “potentiated doxorubicin's lethality”.
For `NNc1nnc(-c2ccccc2)c2ccccc12` [revertin-7], the maximal fold induction (N548 mutant cells) was 2, the EC50 (N548 mutant cells) was 1 µg/mL (≈ 4.23 µM) and the EC50 [2] was 2 µg/mL (≈ 8.46 µM). For the same compound, the “PC12 rescue: percent increase” value [2] was 18%.
With `CC(c1ccccc1)N(CCC(Cc1ccccc1)C1COCC(C)(C)C1)C(=O)c1ccco1` (stereo not drawn) [Compound 164-4] the TC50 [1] was 0.4 µM and the “Max % Toxicity” value [1] was 64.22%.
For `COc1ccc(CN(CCC(c2ccc(OC(C)C)cc2)C(C)C)C(=O)c2ccco2)cc1` (stereo not drawn) [Compound 164-7], the EC50 [1] was 0.1 µM, the TC50 [1] was 0.4 µM and the “Max % Toxicity” value [1] was 63.90%.
